How the values were obtained:
Assay type in all cases: functional
SK-MEL-28 [1] = assay: In vitro total growth inhibition against melanoma SK-MEL-28 cell lines was reported.; conditions: Homo sapiens, read-out: Log TGI (converted)
A498 = assay: In vitro growth inhibition against renal cancer A498 cell line was reported.; conditions: Homo sapiens
SW-620 = assay: In vitro growth inhibition against colon cancer SW620 cell line was reported.; conditions: Homo sapiens
OVCAR-8 [2] = assay: In vitro growth inhibition against ovarian cancer OVCAR-8 cell line was reported.; conditions: Homo sapiens
OVCAR-8 [3] = assay: In vitro total growth inhibition against ovarian cancer OVCAR-8 cell lines was reported.; conditions: Homo sapiens, read-out: Log TGI (converted)
BT-549 = assay: In vitro total growth inhibition against breast cancer BT 549 cell line was reported.; conditions: Homo sapiens, read-out: Log TGI (converted)
NCI-H226 = assay: In vitro total growth inhibition against non-small-cell lung cancer NCI-H226 cell lines was reported.; conditions: Homo sapiens, read-out: Log TGI (converted)
NCI-H322M = assay: Log of molar concentration leading to 50% cell death against non-small-cell lung cancer NCI-H322M cell line was reported; conditions: Homo sapiens, read-out: Log LC50 (the source's name) (converted)
OVCAR-3 = assay: In vitro total growth inhibition against ovarian cancer OVCAR-3 cell lines was reported.; conditions: Homo sapiens, read-out: Log TGI (converted)
HCC 2998 = assay: Log of molar concentration leading to 50% cell death against colon cancer HCC2998 cell line was reported; conditions: Homo sapiens, read-out: Log LC50 (the source's name) (converted)
IGROV-1 = assay: Log of molar concentration leading to 50% cell death against ovarian cancer IGROV1 cell line was reported; conditions: Homo sapiens, read-out: Log LC50 (the source's name) (converted)
SK-MEL-28 [4] = assay: In vitro growth inhibition against melanoma SK-MEL-28 cell line was reported.; conditions: Homo sapiens
DU-145 = assay: In vitro growth inhibition against prostate cancer […] cell line was reported.; conditions: Homo sapiens
SK-MEL-2 = assay: In vitro growth inhibition against melanoma SK-MEL-2 cell line was reported.; conditions: Homo sapiens
UACC-62 = assay: In vitro total growth inhibition against melanoma UACC-62 cell lines was reported.; conditions: Homo sapiens, read-out: Log TGI (converted)
HCT-15 [5] = assay: In vitro total growth inhibition against colon cancer HCT-15 cell lines was reported.; conditions: Homo sapiens, read-out: Log TGI (converted)
COLO 205 [6] = assay: In vitro total growth inhibition against colon cancer COLO 205 cell lines was reported.; conditions: Homo sapiens, read-out: Log TGI (converted)
HT-29 = assay: In vitro growth inhibition against colon cancer HT-29 cell line was reported.; conditions: Homo sapiens
COLO 205 [7] = assay: In vitro growth inhibition against colon cancer COLO 205 cell line was reported.; conditions: Homo sapiens
SK-MEL-28 [8] = assay: Log of molar concentration leading to 50% cell death against melanoma SK-MEL-28 cell line was reported; conditions: Homo sapiens, read-out: Log LC50 (the source's name) (converted)
Tumor Cell line = assay: In vitro inhibition of 50% cell growth was reported as log of molar concentration for 60 cell lines.; conditions: Homo sapiens
HCT-15 [9] = assay: In vitro growth inhibition against colon cancer […] cell line was reported.; conditions: Homo sapiens
PC-3 = assay: In vitro total growth inhibition against prostate cancer PC-3 cell lines was reported.; conditions: Homo sapiens, read-out: Log TGI (converted)
MDA-MB-231 [10] = assay: In vitro growth inhibition against breast cancer MDA-MB-231/ATCC cell line was reported.; conditions: Homo sapiens
Malme-3M = assay: In vitro growth inhibition against melanoma MALME 3M cell line was reported.; conditions: Homo sapiens
KM12 = assay: In vitro growth inhibition against colon cancer KM12 cell line was reported.; conditions: Homo sapiens
MDA-MB-231 [11] = assay: Log of molar concentration leading to 50% cell death against breast cancer MDA-MB-231/ATCC cell line was reported; conditions: Homo sapiens, read-out: Log LC50 (the source's name) (converted)
MCF7 = assay: In vitro total growth inhibition against breast cancer MCF 7 cell lines was reported.; conditions: Homo sapiens, read-out: Log TGI (converted)
RXF 393 = assay: In vitro total growth inhibition against renal cancer RXF 393 cell lines was reported.; conditions: Homo sapiens, read-out: Log TGI (converted)
OVCAR-4 = assay: Log of molar concentration leading to 50% cell death against ovarian cancer OVCAR-4 cell line was reported; conditions: Homo sapiens, read-out: Log LC50 (the source's name) (converted)

O=C(Nc1cccc2nsnc12)c1cc2c(cc1Cl)Sc1nccn1S2(=O)=O
TGI (SK-MEL-28 [1]): 6.76 µM
GI50 (A498): 13.5 µM
GI50 (SW-620): 12 µM
GI50 (OVCAR-8 [2]): 2.34 µM
TGI (OVCAR-8 [3]): 7.08 µM
TGI (BT-549): 32.4 µM
TGI (NCI-H226): 33.1 µM
CC50 (NCI-H322M): 5.75 µM
TGI (OVCAR-3): 3.47 µM
CC50 (HCC 2998): 55 µM
CC50 (IGROV-1): 79.4 µM
GI50 (SK-MEL-28 [4]): 2.45 µM
GI50 (DU-145): 1.74 µM
GI50 (SK-MEL-2): 10 µM
TGI (UACC-62): 17.8 µM
TGI (HCT-15 [5]): 21.4 µM
TGI (COLO 205 [6]): 30.9 µM
GI50 (HT-29): 2.24 µM
GI50 (COLO 205 [7]): 17.4 µM
CC50 (SK-MEL-28 [8]): 46.8 µM
GI50 (Tumor Cell line): 45.7 µM
GI50 (HCT-15 [9]): 5.25 µM
TGI (PC-3): 3.55 µM
GI50 (MDA-MB-231 [10]): 6.03 µM
GI50 (Malme-3M): 66.1 µM
GI50 (KM12): 2.04 µM
CC50 (MDA-MB-231 [11]): 53.7 µM
TGI (MCF7): 3.39 µM
TGI (RXF 393): 28.8 µM
CC50 (OVCAR-4): 87.1 µM

— ChEMBL document CHEMBL1135808, “A new type of mixed anhydride and its applications to the synthesis of 7-substituted 8-chloro-5,5-dioxoimidazo[1,2-b][1,4,2]benzodithiazines with in vitro antitumor activity” (2002)
